In one series the test system is NFκB. In words: NFκB inhibition assay (24 h), NFκB-dependent firefly luciferase reporter. It counts as cell-based. To be noted: Homo sapiens, 24 h, read-out: NFκB Inhibition 24 h IC50. The procedure: On day 1, 3 × 10^4 NFκB MDA-MB-231-firefly cells were seeded into white 96 well plates (Greiner; #655098). On day 2, the medium was replaced with starvation medium and the cells were pre-incubated for 20 min with either 100 µL of DMSO (Roth; #A994.1) alone at maximal 0.1%, or with the final concentration of the diluted compounds (Table 3). To activate NFκB signaling, cells were stimulated with 20 ng/mL TNFα (Peprotech, Hamburg, Germany; #300-01A). Cell lysis was performed in 20 µL 1× cell lysis buffer according to the manufacturer’s instruction for the Luciferase Assay System (Promega #E1500). NFκB-dependent luminescence was determined as relative light units (RLU) using the microplate reader Spark® (Tecan).
A general note: In a reporter assay the amount or activity of a reporter protein is the signal.

In series [1] the test system is 3D co-culture spheroids of MDA-MB-231 and primary murine CAFs. In words: 3D growth studies, spheroid size of co-culture spheroids. The conditions noted are these: 100 nM, 72 h. The class given is cell-based, human MDA-MB-231. As to the method:
To emulate the TNBC microenvironment, 3D spheroids composed of MDA-MB-231 and CAFs at a ratio of 1:2 in a collagen-based matrix were generated. The culture medium of both cell lines was mixed (DMEM:RPMI 1640 (1:1) + 12.5% FCS + 1% PS) and supplemented with 0.05 mg/mL collagen type I (Thermo Fisher Scientific; #A1048301). On day 1, 3000 cells were seeded into a low-attachment 96 well plate (Greiner; #650970). Spheroids were grown for 72 h before proceeding with compound treatment on day 4, and analysis on day 7 according to the “Spheroid immunostaining”, “3D cell viability”, or “3D growth” studies presented in the results section.
Co-culture spheroids were generated for 72 h before they were exposed to either DMSO (Roth; #A994.1) alone at maximal 0.1%, 100 nM paclitaxel (Santa Cruz Biotechnology; #sc-201439), or 100 nM of compound (1) for another 72 h. At least three spheroids per treatment group were analyzed. For that purpose, brightfield images of the spheroids were acquired at 100× g magnification using the microscope Axio Vert.A1 (Zeiss). The spheroid surface area was quantified in brightfield images using Fiji (open-source software; version 1.52i) and was further defined as spheroid size. In each individual experiment spheroid size was normalized to the smallest (which was set to 0%) and to the largest spheroids (which was set to 100%).

In series [2] the test system is MDA-MB-231 monoculture spheroids. In words: 3D invasion of monoculture spheroids into matrigel. The class given is cell-based, human. To be noted: 10 nM, 48 h. The procedure: To study TNBC invasion in an extracellular matrix (ECM)-like environment, mono-culture spheroids of MDA-MB-231 were generated in matrigel®, as described. In brief, 3000 MDA-MB-231 cells were seeded in 0.25% (v/v) matrigel® (Corning, Taufkirchen, Germany; #356432) into a low-attachment 96 well plate (Greiner; #650970 or Cenibra, Bramsche, Germany; #ULA-96U). For cell aggregation, cells were centrifugated for 10 min at 136× g at 4 °C before being grown for 72 h. Invasion was allowed for another […] before analyzing at least three spheroids per treatment group. For that purpose, brightfield images of the spheroids were acquired at 50× g magnification using the microscope Axio Vert.A1 (Zeiss). The spheroid area before treatment and the spheroid area including the invaded area after compound treatment were quantified in brightfield images using Fiji (open-source software; version 1.52i).
Figure 6 Compound (1s) blocks TNBC monoculture spheroid invasion in a matrigel®-based extracellular matrix (ECM). […] (a) Invaded area was measured using Fiji (open-source software; version 1.52i) with manually picked positions (white squares) to determine the outline (yellow line) of the spheroid area within 0 h and after 48-h treatment. […] (c) Invaded area is calculated by normalizing the spheroid area after 48 h treatment to the spheroid size at 0 h. […]

In another series the test system is MDA-MB-468-UnaG. Kind of series: 2D cell viability in MDA-MB-468-UnaG under normoxia or CoCl2-simulated hypoxia.

Where two headings read alike, the source gives them in different places.

What is called IC50 is the point on the concentration scale where inhibition reaches its midpoint. For `COc1ccc2c3c(c4cc(OC)c(OC)cc4c2c1)CN1CCCC1C3O` (stereo not drawn) [Compound (1), O-methyltylophorinidine], the IC50 in the series on NFκB stood at 3.7 ± 1 nM. Moreover, the “reduction of spheroid growth compared to untreated spheroids” value in series [1] was found to be 40%.

For the compound `COc1ccc2c3c(c4cc(OC)c(OC)cc4c2c1)CN1CCCC1C3O` (stereo not drawn) [Compound (1s), O-methyltylophorinidine], in series [2], the “blockade of invasion (invaded area)” value is given as “approximately 65%”. For the same compound, the IC50 was 6.5 nM with MDA-MB-468-UnaG (24 h, read-out: cell viability IC50, hypoxia) and 6.7 nM with MDA-MB-468-UnaG (read-out: cell viability IC50, normoxia). Also, in the series on MDA-MB-468-UnaG (hypoxia vs normoxia, MDA-MB-468-UnaG), the “decrease of cytotoxic effects by hypoxia (factor)” value is reported as “barely affected”.

Source of the values: paper PMC9499467, “Phenanthroindolizidine Alkaloids Isolated from Tylophora ovata as Potent Inhibitors of Inflammation, Spheroid Growth, and Invasion of Triple-Negative Breast Cancer” (International Journal of Molecular Sciences, 2022).
